Experimental data taken from patent US8188308B2 (Kyowa Hakko Bio Co., Ltd., priority 2006, dated 2012).
Where “and” joins values, the source holds several entries; their conditions need not be identical. Equal entries are not always repeated.

Columns and labels:
[1] = glutathione crystals
Procedure: The crystals were observed and photographed using a VH-8000 digital microscope (Keyence Corporation). The width of approximately 300 crystals was measured and calculations performed.

[2] = glutathione crystals; volume median diameter
Procedure: (2) Average Particle Diameter
This is synonymous with volume median diameter, and it was measured using a laser diffraction and scattering particle diameter analyzer, the LMS-24 SK Laser Micron Sizer (Seishin Enterprise Co. Ltd.) and expressed as a cumulative 50% volume particle diameter.

[3] = 12 g crystals in 200 ml ionized water, 37° C., 120 rpm, time to complete dissolution
Procedure: 12 g of each of the crystals was put in to 200 ml of the ionized water maintained at a temperature of 37° C., and the time from injection to complete dissolution of the crystals when agitated at 120 rpm was measured.

| SMILES | Average width [1] | Average particle diameter [2] | Dissolution time [3] |
| --- | --- | --- | --- |
| N[C@@H](CCC(=O)N[C@@H](CS)C(=O)NCC(=O)O)C(=O)O [Commercial product A] | 3 μm | 9 μm | 124 s |
| N[C@@H](CCC(=O)N[C@@H](CS)C(=O)NCC(=O)O)C(=O)O [Example 1, gamma-L-glutamyl-L-cysteinyl glycine] | 25 μm | 52 μm | – |
| N[C@@H](CCC(=O)N[C@@H](CS)C(=O)NCC(=O)O)C(=O)O [Example 2, gamma-L-glutamyl-L-cysteinyl glycine] | 14 μm and 7 μm | – | – |
| N[C@@H](CCC(=O)N[C@@H](CS)C(=O)NCC(=O)O)C(=O)O [commercial product B] | 3 μm | – | – |
| N[C@@H](CCC(=O)N[C@@H](CS)C(=O)NCC(=O)O)C(=O)O [commercial product C] | 3 μm | – | – |
